# From patent US11446298B2, “Pyrimidine derivatives” (Idorsia Pharmaceuticals Ltd, priority 2017, dated 2022)
# Key:
# Format in all cases: cell-based
# [1] = target: T1, EP4 (Homo sapiens, UniProt P35408); experiment: hEP4 cAMP Assay (BT549 breast cancer cells, HTRF cAMP, PGE2 6 nM); conditions: antagonistic activity, PGE2 6 nM (EC80)
# T1 construct: BT549 breast cancer cells, express high endogenous EP4 levels and very low EP2 levels; host or cells: BT549 breast cancer cells
# Method in brief: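 BT549 cells (endogenous EP4, very low EP2) in HBSS/20 mM HEPES/0.2% BSA/2 mM IBMX, pre-incubated 45 min RT with compound, then stimulated 30 min RT with PGE2 6 nM (EC80). cAMP read by HTRF competitive immunoassay (665/620 nm), converted via calibrator to % of DMSO control; IC50 from duplicate dose-response curves.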
# [2] = target: T2, PTGER4 (EP4) (Homo sapiens, UniProt P35408); experiment: hEP4 b-Arrestin Assay (PathHunter HEK 293 PTGER4 b-arrestin cells, PGE2 20 nM); conditions: antagonistic activity, beta-arrestin assay, HEK 293 PTGER4 cells, PGE2 20 nM (EC80); read-out: hEP4 b-arr IC50
# T2 construct: host or cells: HEK 293 (PathHunter, stably transfected)
# T2 sequence (P35408 whole entry): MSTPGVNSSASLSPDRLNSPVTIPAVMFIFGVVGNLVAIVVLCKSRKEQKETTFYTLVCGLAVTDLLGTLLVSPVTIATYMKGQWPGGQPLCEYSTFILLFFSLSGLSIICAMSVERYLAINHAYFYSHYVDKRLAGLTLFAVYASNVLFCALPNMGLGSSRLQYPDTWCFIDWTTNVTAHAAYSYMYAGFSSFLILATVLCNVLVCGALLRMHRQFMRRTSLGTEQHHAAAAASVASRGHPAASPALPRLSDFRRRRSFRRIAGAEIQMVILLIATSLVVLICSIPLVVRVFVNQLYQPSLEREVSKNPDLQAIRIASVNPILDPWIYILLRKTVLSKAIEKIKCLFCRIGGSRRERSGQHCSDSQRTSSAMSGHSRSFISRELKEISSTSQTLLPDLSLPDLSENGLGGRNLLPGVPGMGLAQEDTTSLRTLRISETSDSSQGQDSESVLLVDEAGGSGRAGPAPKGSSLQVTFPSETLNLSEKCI
# Method in brief: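 PathHunter HEK 293 EP4 b-arrestin enzyme-complementation cells preincubated 15 min at 37° C with compound (10 μM-2 nM or 1 μM-0.2 nM), then stimulated 120 min with 20 nM PGE2 (EC80). Chemiluminescence read; IC50 from duplicate % activity vs DMSO, one-site fit, averaged over repeats.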
# [3] = target: T3, EP2 (Homo sapiens, UniProt P43116); experiment: hEP2 cAMP Assay (SF295 glioblastoma cells, HTRF cAMP, PGE2 75 nM); conditions: antagonistic activity, PGE2 75 nM (EC80)
# T3 construct: SF295 glioblastoma cells express high endogenous EP2 and no EP4; host or cells: SF295 glioblastoma cells
# T3 sequence (P43116 whole entry): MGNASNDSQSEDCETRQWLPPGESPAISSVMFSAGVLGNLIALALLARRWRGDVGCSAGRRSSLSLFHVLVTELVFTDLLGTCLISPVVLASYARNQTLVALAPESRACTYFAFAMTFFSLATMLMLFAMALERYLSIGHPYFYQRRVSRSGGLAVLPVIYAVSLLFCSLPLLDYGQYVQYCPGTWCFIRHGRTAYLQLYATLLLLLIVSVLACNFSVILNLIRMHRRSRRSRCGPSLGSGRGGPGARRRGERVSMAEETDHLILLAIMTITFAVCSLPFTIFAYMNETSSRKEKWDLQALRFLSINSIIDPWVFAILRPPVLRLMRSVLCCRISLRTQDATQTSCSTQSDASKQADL
# Method in brief: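 IC50 values derive from duplicate-point curves of percent cAMP relative to DMSO, read by HTRF (665/620 nm) against a cAMP calibrator. Compounds (30 μM to 0.01 nM ranges) were given 45 min at room temperature before 30 min with 75 nM PGE2, in EP2-only SF295 cells with 2 mM IBMX.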
# [4] = target: T4, PTGER2 (EP2) (Homo sapiens, UniProt P43116); experiment: hEP2 b-Arrestin Assay (PathHunter HEK 293 PTGER2 b-arrestin cells, PGE2 5 μM); conditions: antagonistic activity, beta-arrestin assay, HEK 293 PTGER2 cells, PGE2 5 μM (EC80); read-out: hEP2 b-arr IC50
# T4 construct: host or cells: HEK 293 (PathHunter, stably transfected)
# T4 sequence (P43116 whole entry): as above
# Method in brief: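 PathHunter enzyme-fragment complementation in HEK 293 cells: compounds (10 μM-2 nM or 1 μM-0.2 nM) pre-incubated 15 min at 37 °C, then 5 μM PGE2 (EC80) for 120 min at 37 °C. Chemiluminescence read after 1 h detection; IC50 from duplicate dose-response fits, means of repeats.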
# T1 sequence (P35408 whole entry): as the sequence (P35408 whole entry) above
SMILES,IC50 [1],IC50 [2],IC50 [3],IC50 [4]
"CCOc1cc(-c2cc(NCCc3c(OC(F)F)ccc4ccccc34)ncn2)sc1C(=O)O [Example 32, 5-{6-[2-(2-Difluoromethoxy-naphthalen-1-yl)-ethylamino]-pyrimidin-4-yl}-3-ethoxy-thiophene-2-carboxylic acid]",72 nM,19 nM,10 nM,10 nM
"COc1ccc2c(c1CCNc1cc(-c3cc(C(F)(F)F)c(C(=O)O)s3)ncn1)CCCN2C [Example 154, 5-{6-[2-(6-Methoxy-1-methyl-1,2,3,4-tetrahydro-quinolin-5-yl)-ethylamino]-pyrimidin-4-yl}-3-trifluoromethyl-thiophene-2-carboxylic Acid]",177 nM,125 nM,144 nM,57 nM
"CCOc1cc(-c2cc(NCCc3c(OC)ccc4ccccc34)ncn2)sc1C(=O)O [Example 4, 3-Ethoxy-5-{6-[2-(2-methoxy-naphthalen-1-yl)-ethylamino]-pyrimidin-4-yl}-thiophene-2-carboxylic acid]",15 nM,20 nM,2 nM,2 nM
"CCOc1cc(-c2cc(NCCc3c(C#N)ccc4ccccc34)ncn2)sc1C(=O)O [Example 68, 5-{6-[2-(2-Cyano-naphthalen-1-yl)-ethylamino]-pyrimidin-4-yl}-3-ethoxy-thiophene-2-carboxylic acid]",22 nM,24 nM,3 nM,7 nM
"CCOc1cc(-c2cc(NCCc3c(OC)ccc4ccccc34)ncn2)ccc1OCCC(=O)O [Example 120, 3-(2-Ethoxy-4-{6-[2-(2-methoxy-naphthalen-1-yl)-ethylamino]-pyrimidin-4-yl}-phenoxy)-propionic acid]",206 nM,75 nM,88 nM,16 nM
"CCOc1cc(-c2cc(NCCc3c(OC)ccc4ncccc34)ncn2)sc1-c1nnn[nH]1 [Example 145, {6-[4-Ethoxy-5-(1H-tetrazol-5-yl)-thiophen-2-yl]-pyrimidin-4-yl}-[2-(6-methoxy-quinolin-5-yl)-ethyl]-amine]",53 nM,18 nM,81 nM,16 nM
"CCOc1cc(-c2cc(NCCc3c(OC)ccc4ncccc34)ncn2)sc1C(=O)O [Example 65, 3-Ethoxy-5-{6-[2-(6-methoxy-quinolin-5-yl)-ethylamino]-pyrimidin-4-yl}-thiophene-2-carboxylic acid]",75 nM,78 nM,15 nM,18 nM
"COc1ccc2ncccc2c1CCNc1cc(-c2cc(C(F)(F)F)c(C(=O)O)s2)ncn1 [Example 81, 5-{6-[2-(6-Methoxy-quinolin-5-yl)-ethylamino]-pyrimidin-4-yl}-3-trifluoromethyl-thiophene-2-carboxylic acid]",205 nM,427 nM,30 nM,116 nM
"CCOc1cc(-c2cc(NCCc3c(OC)ccc4nc(C)ccc34)ncn2)sc1C(=O)O [Example 13, 3-Ethoxy-5-{6-[2-(6-methoxy-2-methyl-quinolin-5-yl)-ethylamino]-pyrimidin-4-yl}-thiophene-2-carboxylic acid]",138 nM,225 nM,24 nM,25 nM
"CCOc1cc(-c2cc(NCCc3c(F)ccc4ccccc34)ncn2)sc1C(=O)O [Example 95, 3-Ethoxy-5-{6-[2-(2-fluoro-naphthalen-1-yl)-ethylamino]-pyrimidin-4-yl}-thiophene-2-carboxylic acid]",21 nM,51 nM,4 nM,8 nM
"CCOc1cc(-c2cc(NCCc3c(C)ccc4ccccc34)ncn2)sc1C(=O)O [Example 1, 3-Ethoxy-5-{6-[2-(2-methyl-naphthalen-1-yl)-ethylamino]-pyrimidin-4-yl}-thiophene-2-carboxylic acid]",47 nM,177 nM,4 nM,5 nM
"CCOc1cc(-c2cc(NCCc3cccc4[nH]ccc34)ncn2)sc1-c1noc(=O)[nH]1 [Example 137, 3-(3-Ethoxy-5-{6-[2-(1H-indol-4-yl)-ethylamino]-pyrimidin-4-yl}-thiophen-2-yl)-[1,2,4]oxadiazol-5(4H)-one]",37 nM,37 nM,37 nM,16 nM
"CCOc1ccc2ccccc2c1CCNc1cc(-c2ccc(C(=O)O)c(OC3CCC3)c2)ncn1 [Example 26, 2-Cyclobutoxy-4-{6-[2-(2-ethoxy-naphthalen-1-yl)-ethylamino]-pyrimidin-4-yl}-benzoic acid]",566 nM,392 nM,11 nM,10 nM
"COc1ccc2ccccc2c1CCNc1cc(-c2ccc(C(=O)O)c(OC(F)F)c2)ncn1 [Example 128, 2-Difluoromethoxy-4-{6-[2-(2-methoxy-naphthalen-1-yl)-ethylamino]-pyrimidin-4-yl}-benzoic acid]",250 nM,291 nM,3 nM,10 nM
"CCOc1cc(-c2cc(NCCc3cccc4ncccc34)ncn2)sc1-c1noc(=O)[nH]1 [Example 188, 3-{3-Ethoxy-5-[6-(2-quinolin-5-yl-ethylamino)-pyrimidin-4-yl]-thiophen-2-yl}-[1,2,4]oxadiazol-5(4H)-one]",22 nM,282 nM,324 nM,59 nM
"CCOc1cc(-c2cc(NCCc3c(C)ccc4c3cnn4C)ncn2)sc1C(=O)O [Example 79, 5-{6-[2-(1,5-Dimethyl-1H-indazol-4-yl)-ethylamino]-pyrimidin-4-yl}-3-ethoxy-thiophene-2-carboxylic acid]",92 nM,196 nM,25 nM,36 nM

# Next, values leading:
IC50 [1],IC50 [2],IC50 [3],IC50 [4],SMILES
67 nM,23 nM,3 nM,5 nM,"CCOc1cc(-c2cc(NCCc3c(OC)ccc4ccccc34)ncn2)sc1C(=O)NS(N)(=O)=O [Example 135, 3-Ethoxy-5-(6-((2-(2-methoxynaphthalen-1-yl)ethyl)amino)pyrimidin-4-yl)-N-sulfamoylthiophene-2-carboxamide]"
130 nM,149 nM,88 nM,68 nM,"CSc1cc(-c2cc(NCCc3ccc(Br)c4ccccc34)ncn2)ccc1C(=O)O [Example 171, 4-{6-[2-(4-Bromo-naphthalen-1-yl)-ethylamino]-pyrimidin-4-yl}-2-methylsulfanyl-benzoic acid]"
182 nM,193 nM,209 nM,142 nM,"CCOc1cc(-c2cc(NCCc3ccc(Br)c4ccccc34)ncn2)ccc1C(=O)O [Example 182, 4-{6-[2-(4-Bromo-naphthalen-1-yl)-ethylamino]-pyrimidin-4-yl}-2-ethoxy-benzoic acid]"
24 nM,17 nM,77 nM,28 nM,"CCOc1cc(-c2cc(NCCc3c(OC)c(OC)cc4ccccc34)ncn2)sc1C(=O)O [Example 14, 5-{6-[2-(2,3-Dimethoxy-naphthalen-1-yl)-ethylamino]-pyrimidin-4-yl}-3-ethoxy-thiophene-2-carboxylic acid]"
1250 nM,34 nM,8 nM,13 nM,"CCc1nc(-c2cc(NCCc3c(OC)ccc4ccccc34)ncn2)sc1-c1noc(=O)[nH]1 [Example 190, 3-(4-Ethyl-2-{6-[2-(2-methoxy-naphthalen-1-yl)-ethylamino]-pyrimidin-4-yl}-thiazol-5-yl)-[1,2,4]oxadiazol-5(4H)-one]"
62 nM,77 nM,16 nM,32 nM,"CCOc1cc(-c2cc(NCCc3ccc(F)c4ccccc34)ncn2)sc1C(=O)O [Example 21, 3-Ethoxy-5-{6-[2-(4-fluoro-naphthalen-1-yl)-ethylamino]-pyrimidin-4-yl}-thiophene-2-carboxylic acid]"
61 nM,83 nM,23 nM,115 nM,"CCOc1cc(-c2cc(NCCc3c(OC(C)C)ccc4ccccc34)ncn2)sc1C(=O)O [Example 30, 3-Ethoxy-5-{6-[2-(2-isopropoxy-naphthalen-1-yl)-ethylamino]-pyrimidin-4-yl}-thiophene-2-carboxylic acid]"
33 nM,53 nM,2 nM,3 nM,"CCOc1cc(-c2cc(NCCc3c(OCC)ccc4ccccc34)ncn2)sc1C(=O)O [Example 27, 3-Ethoxy-5-{6-[2-(2-ethoxy-naphthalen-1-yl)-ethylamino]-pyrimidin-4-yl}-thiophene-2-carboxylic acid]"
